The text below walks through data of PMC4310329, “The length of a lantibiotic hinge region has profound influence on antimicrobial activity and host specificity” (Frontiers in Microbiology, 2015).

The test system of one assay is E. faecalis VE14089. The assay can be described thus: Agar well diffusion assay. It counts as cell-based, Enterococcus faecalis. The conditions noted are these: estimated from halo diameter by nisin standard curve, relative to wt. Here is the method:
(§1) L. lactis strains were cultured in M17 broth supplemented with 0.5% (w/v) glucose (GM17) or GM17 agar for genetic manipulation or in minimal expression medium (MEM) for protein expression at 30°C (Rink et al., [2005]). E. faecalis, S. aureus, S. pneumonia, and L. monocytogenes were grown in GM17 at 37°C or GM17 agar at different temperatures for agar diffusion assay. M. luteus was grown in Luria-Bertani broth shaken (200 rpm) at 30°C or LB agar at 20°C for agar diffusion assay. Bacillus strains were cultured in Brain Heart Infusion (BHI) shaken (200 rpm) or BHI agar at different temperatures for agar diffusion assay.
(§2) For the agar well diffusion assay, the same cultures as in the MIC value test were used and diluted 200 times with solid media. Identical sizes of wells (7.5 mm diameter) were made and 2 μg of hinge region analogs dissolved in 20 μl 0.05% acetic acid were added. The plates were incubated at different temperatures for at least 1 day until apparent halos appeared. For activity test at low temperature, the indicators were diluted in the same way but poured into smaller plates (52 mm diameter). The plates were incubated at 4°C overnight before the peptides were added. B. sporothermodurans IC4 and B. cereus 4153 were first incubated with the peptides at 4°C for 2 weeks then moved to 30°C and incubated overnight. The diameters of the halos were measured.
(§3) The antimicrobial activity of the hinge region analogs in solid media were tested by an agar well diffusion assay. The diameters of the halos were measured and the residual activity of the analogs were estimated according to the formula of the relationship between the concentration of nisin and the sizes of halos. We made use of the fact that the size of the halo is directly related to the log of nisin concentration. Of course this is an estimate of activity of the variants because any changes in diffusion of the variant bacteriocin or growth rates of indicator bacteria during the assay could also affect the size of the halo. (Table 5 and Supplementary Figure 1). The plates were shown in supplementary data (Supplementary Figures 2–8). […] And against L. lactis at 20°C, the inhibition zone was larger than nisin. […] The M. luteus grows quite fast at room temperature and only the +2 variant retained 55% of the activity of nisin. […]
(§4) To evaluate the activity of nisin on the agar plate, an agar well diffusion assay with gradient of nisin against Lactococcus lactis ( with two plasmids) was performed ( Supplementary Figur e 1 A). The diameter of the halos were measured (Supplementary Figure 1B). […]
(§5) the concentration of nisin is in liner relationship with diameter of the halos ( Supplementary Fi g u re 1C). According to the formula (1) , the relative activity of the peptides compared to nisin can be calculated b y the formula ( 2) .
(§6) Supplementary Figure 1. Relationship between concentration of nisin and diameter of the halos. (A) Agar well diffusion assay. Gradient concentration of nisin were made and dissolved in 30µl 0.05% acetic acid. Lactococcus lactis ( with two plasmids) was cultured overnight and diluted 250 times with GM17 agar before added to the plate. The final concentration of the cells was about 2×10^6 cells/milliliter. The plate was incubated for 1 da y. Concentrations of nisin were labeled. (B) log10 of the concentrati ons and diameters of the halo. (C) A linear curve w as made betw een t he diameters of the halo and log10s of the concentration of nisin.
(§7) (1 picture or pasted object on this page, not shown here)
(§8) Last Name a uthor 1 et al. Running Title
(§9) C = concentration of nisin d° = diameter of the halo of wild t ype […]

Another assay relates to M. luteus. The experiment in a line: Agar well diffusion assay. It counts as cell-based, Micrococcus luteus. The conditions noted are these: 20 °C; estimated from halo diameter by nisin standard curve, relative to wt. On the procedure: as §1, §2, §3, §4, §5
as §6, with “nisin. […]” for “nisin.”

The subject of the next assay is Listeria monocytogenes. The experiment in a line: MIC in liquid culture. It counts as cell-based. To be noted: MIC value of nisin divided by that of the analog. On the procedure: as §1
(§10) The indicator strains were cultured until OD (600 nm) reached 0.5. Before MIC value test, the culture was diluted 1000 times to make the concentration of cells around 5 × 10^5 per milliliter. The test was performed using a temperature controlled plate reader [Tecan200 (Tecan Group AG)] and 96 well plate (Greiner Bio-one). 180 μl indicator strain culture mixed with 20 μl hinge region analogs with final concentration from 0.031 μg/ml–32 μg/ml was incubated at 30°C or 37°C for 18 h. OD (600 nm) was checked every 30 min. For aerobic strains, 2 min of shaking was performed before every check. The concentration of peptide without observed growth of indicator strains was considered as the MIC value.

The test system of another assay is Bacillus cereus 4153. The assay can be described thus: MIC in liquid culture. To be noted: MIC value of nisin divided by that of the analog. It counts as cell-based. On the procedure:
as §1, §10

The test system of assay [1] is Enterococcus faecalis VE14089. The assay can be described thus: MIC in liquid culture. It counts as cell-based. To be noted: MIC value of nisin divided by that of the analog. On the procedure: as §1, §10
Another assay has as its system Bacillus cereus 4147. The assay can be described thus: MIC in liquid culture. The conditions noted are these: MIC value of nisin divided by that of the analog. It counts as cell-based. On the procedure:
as §1, §10

Assay [2] deals with Lactococcus lactis MG1363. The experiment in a line: MIC in liquid culture. It counts as cell-based. The conditions noted are these: MIC value of nisin divided by that of the analog. Here is the method:
as §1, §10

The test system of assay [3] is Bacillus cereus (L′29) 16. The assay can be described thus: MIC in liquid culture. To be noted: MIC value of nisin divided by that of the analog. It counts as cell-based. Here is the method: as §1, §10
The test system of assay [4] is Streptococcus pneumoniae R6. The assay can be described thus: MIC in liquid culture. To be noted: MIC value of nisin divided by that of the analog. It counts as cell-based. On the procedure: as §1, §10
The test system of another assay is Staphylococcus aureus. The assay can be described thus: MIC in liquid culture. It counts as cell-based. To be noted: MIC value of nisin divided by that of the analog. Here is the method: as §1, §10
A further assay has as its system Micrococcus luteus. The assay can be described thus: MIC in liquid culture. It counts as cell-based. The conditions noted are these: MIC value of nisin divided by that of the analog. Here is the method: as §1, §10
Another assay has as its system L. lactis MG1363. The experiment in a line: Agar well diffusion assay. It counts as cell-based, Lactococcus lactis. The conditions noted are these: relative to wt. Here is the method:
as §1, §2, §3, §4, §5, §6, §7, §8, §9
In general terms: Agar diffusion results depend on both activity and mobility in agar.

The test system of a further assay is S. aureus. The assay can be described thus: Agar well diffusion assay. It counts as cell-based, Staphylococcus aureus. To be noted: 20 °C; estimated from halo diameter by nisin standard curve, relative to wt. Here is the method:
as §1, §2, §3, §4, §5
as §6, with “nisin. […]” for “nisin.”

The next assay has as its system B. sporothermodurans IC4. The assay can be described thus: Agar well diffusion assay. It counts as cell-based, Bacillus sporothermodurans. To be noted: 30 °C; estimated from halo diameter by nisin standard curve, relative to wt. On the procedure: as §1
as §2, with “B. sporothermodurans IC4 and B. cereus 4153 were first incubated with the peptides at 4°C for 2 weeks then moved to 30°C and incubated overnight.” left out
The antimicrobial activity of the hinge region analogs in solid media were tested by an agar well diffusion assay. The diameters of the halos were measured and the residual activity of the analogs were estimated according to the formula of the relationship between the concentration of nisin and the sizes of halos. […]
as §4
the concentration of nisin is in liner relationship with diameter of the halos ( Supplementary Fi g u re 1C). According to the formula (1) , the relative activity of the peptides compared to nisin can be calculated b y the formula ( 2) . […]

The test system of a further assay is Bacillus cereus. The experiment in a line: Agar well diffusion assay against Bacillus strains (Supplementary Figure 8). It counts as cell-based. To be noted: 30°C for 18 hours, BHI agar, 5 µg nisin or +2 analogue in 50 µl 0.05% acetic acid. On the procedure:
The antimicrobial activity of the hinge region analogs in solid media were tested by an agar well diffusion assay. The diameters of the halos were measured and the residual activity of the analogs were estimated according to the formula of the relationship between the concentration of nisin and the sizes of halos. We made use of the fact that the size of the halo is directly related to the log of nisin concentration. Of course this is an estimate of activity of the variants because any changes in diffusion of the variant bacteriocin or growth rates of indicator bacteria during the assay could also affect the size of the halo. (Table 5 and Supplementary Figure 1). The plates were shown in supplementary data (Supplementary Figures 2–8). […] And against L. lactis at 20°C, the inhibition zone was larger than nisin. […] The M. luteus grows quite fast at room temperature and only the +2 variant retained 55% of the activity of nisin.
Supplementary Figure 7.Agar well diffusion assays of hinge region analogues against Bacillus sporotherm odurans IC4 . 2 µg of peptides w ere added per w ell. The plates were incub ated at 30 ° C […]
Supplementary Figure 8.Agar well diffusion assays of hinge region analogues against 4 kinds of Bacillus strains . 5µl overnight culture was mixed with 5ml BHI agar and poured into the plate. […]

The subject of the next assay is L. monocytogenes. The assay can be described thus: Agar well diffusion assay. It counts as cell-based, Listeria monocytogenes. To be noted: estimated from halo diameter by nisin standard curve, relative to wt. On the procedure:
as §1, §2, §3, §4, §5, §6, §7, §8, §9

Turning to `C=C(NC(=O)[C@@H](NC(=O)[C@H](Cc1c[nH]cn1)NC(=O)[C@@H](NC(=O)[C@H](CO)NC(=O)[C@@H]1CS[C@@H](C)[C@H]2NC(=O)[C@H](C)NC(=O)[C@H](NC(=O)[C@H](CCCCN)NC(=O)[C@H](CCSC)NC(=O)[C@@H](NC(=O)[C@@H](NC(=O)[C@H](CC(N)=O)NC(=O)[C@@H]3CS[C@@H](C)[C@@H](NC(=O)[C@H](CCCCN)NC(=O)[C@@H]4CS[C@@H](C)[C@@H](NC(=O)[C@@H]5CSC[C@@H](NC(=O)/C(=C/C)NC(=O)[C@@H](N)[C@@H](C)CC)C(=O)N[C@@H]([C@@H](C)CC)C(=O)NC(=C)C(=O)N[C@@H](CC(C)C)C(=O)N5)C(=O)N5CCC[C@H]5C(=O)NCC(=O)N4)C(=O)NCC(=O)N[C@@H](C)C(=O)N[C@@H](CC(C)C)C(=O)N[C@@H](CCSC)C(=O)NCC(=O)N3)[C@@H](C)CC)C(C)C)[C@H](C)SC[C@H](NC2=O)C(=O)N[C@@H](Cc2c[nH]cn2)C(=O)N1)[C@@H](C)CC)C(C)C)C(=O)N[C@@H](CCCCN)C(=O)O` [+2], the Residual activity is 144% in the assay on E. faecalis VE14089 (20 °C); 88% in the assay with E. faecalis VE14089 (30 °C); 101% in the assay on E. faecalis VE14089 (37 °C); 55% with M. luteus; 140% with L. lactis MG1363 (20 °C, estimated from halo diameter by nisin standard curve (halo diameter vs log of nisin concentration)); 114% in the assay on L. lactis MG1363 (30 °C, estimated from halo diameter by nisin standard curve). Also, the Residual activity was 22% in the assay on S. aureus, 236% in the assay with B. sporothermodurans IC4, 139% in the assay with L. monocytogenes (20 °C) and 114% with L. monocytogenes (30 °C). For the same compound, the “Residual activity of variants compared to nisin” value came to 50% with Listeria monocytogenes; 50% with Bacillus cereus 4153; 30% in [1]; 50% with Bacillus cereus 4147; 25% in assay [2]; 25% in [3]. Further, the “Residual activity of variants compared to nisin” value in [4] is given as 25%; with Staphylococcus aureus, <6%; in the assay with Micrococcus luteus, 25%. In addition, the “plate activity compared to nisin” value with Bacillus cereus is on record as “either equal or higher plate activity than nisin”.
